Assay results: patent publication US11945821B1, “5-substituted aminopyrazino[2′,1′:2,3]imidazo[4,5-C][2,7]naphthyridine compounds as CK2 inhibitors” (KING FAISAL UNIVERSITY, priority 2023, dated 2024)
pIC50: −log10 of the molar value.

How the values were obtained:
PC3 (prostate) = assay: In vitro cytotoxic activity (MTT) assay, PC3; type: cell-based; settings: Homo sapiens, PC-3; PC3 cells, exposed for 96 hours; read-out: IC50, 50% inhibition of cell proliferation, PC3 (prostate)
Procedure: (§1) Compounds 1-12 were screened for their in vitro cytotoxic activity utilizing a 3-(4,5-dimethyl-thiazol-2-yl)-2,5-diphenyltetrazolium bromide (MTT) assay against selected cancer human cell lines consisting of PC3 (prostate), HCT116 (colon), A375 (melanoma), H1299 (lung), MIAPaCa-2 (pancreas), HL60 (leukemia), MCF7 (breast), MDA-MB-231 (breast) (T. Mosmann, J. Immunol. Meth., 1983, 65, 55-63). The cells were cultured at 37° C. in RMPI1640 medium supplemented with 10% fetal bovine serum, 50 IU/mL penicillin, and 50 μg/mL streptomycin in a 5% CO2 incubator. All cells were sub-cultured 3 times/week by trypsinisation. Viable cells were seeded and allowed to adhere for 12 h before a test drug was added in 96-well plates at an initial density of 1.0×10^5 cells/mL. Tumour cell lines were separately exposed to various concentrations of the tested compounds followed by incubation at a temperature of 37° C. during 96 h inside a medium of fresh RMPI 1640. Cells were subsequently incubated at 37° C. using MTT at 0.5 mg/mL during 4 h. After removal of supernatant, formazan crystals were dissolved in isopropanol and the optical density was measured at 570 nm. CX-4945 was used as a positive control.

HCT116 (colon) = assay: In vitro cytotoxic activity (MTT) assay, HCT116; type: cell-based; settings: Homo sapiens, HCT-116; HCT116 cells, exposed for 96 hours; read-out: IC50, 50% inhibition of cell proliferation, HCT116 (colon)
Procedure: as §1

A375 (melanoma) = assay: In vitro cytotoxic activity (MTT) assay, A375; type: cell-based; settings: Homo sapiens, A-375; A375 cells, exposed for 96 hours; read-out: IC50, 50% inhibition of cell proliferation, A375 (melanoma)
Procedure: as §1

H1299 (lung) = assay: In vitro cytotoxic activity (MTT) assay, H1299; type: cell-based; settings: Homo sapiens, NCI-H1299; H1299 cells, exposed for 96 hours; read-out: IC50, 50% inhibition of cell proliferation, H1299 (lung)
Procedure: as §1

MIAPaCa-2 (pancreas) = assay: In vitro cytotoxic activity (MTT) assay, MIAPaCa-2; type: cell-based; settings: Homo sapiens, MIA PaCa-2; MIAPaCa-2 cells, exposed for 96 hours; read-out: IC50, 50% inhibition of cell proliferation, MIAPaCa-2 (pancreas)
Procedure: as §1

HL60 (leukemia) = assay: In vitro cytotoxic activity (MTT) assay, HL60; type: cell-based; settings: Homo sapiens, HL-60; HL60 cells, exposed for 96 hours; read-out: IC50, 50% inhibition of cell proliferation, HL60 (leukemia)
Procedure: as §1

MCF7 (breast) = assay: In vitro cytotoxic activity (MTT) assay, MCF7; type: cell-based; settings: Homo sapiens; MCF7 cells, exposed for 96 hours; read-out: IC50, 50% inhibition of cell proliferation, MCF7 (breast)
Procedure: as §1

MDA-MB-231 (breast) = assay: In vitro cytotoxic activity (MTT) assay, MDA-MB-231; type: cell-based; settings: Homo sapiens; MDA-MB-231 cells, exposed for 96 hours; read-out: IC50, 50% inhibition of cell proliferation, MDA-MB-231 (breast)
Procedure: as §1

[1] = target: T1, recombinant human CK2 (RRββ-holoenzyme) (Homo sapiens, UniProt P68400); assay: CK2 Kinase Assay (33P-ATP, filter plate); type: biochemical; settings: final ATP 15 μM, 10 min at 30° C., eight concentrations; read-out: protein kinase CK2 IC50
T1 construct: purchased Millipore
Procedure: CK2 Kinase Assay was conducted using the protocol as described in Pierre F. et al; J. Med. Chem. 2011, 54, 635-654. The tested compounds in aqueous solution were added at a volume of 10 μL to a reaction mixture comprising 10 μL of assay dilution buffer (ADB; 20 mM MOPS, pH 7.2, 25 mM β-glycerol phosphate, 5 mM EGTA, 1 mM sodium orthovanadate, and 1 mM dithiothreitol), 10 μL of substrate peptide (RRRDDDSDDD, dissolved in ADB at a concentration of 1 mM), 10 μL of recombinant human CK2 (RRββ-holoenzyme, 25 ng dissolved in ADB; Millipore). Reactions were initiated by the addition of 10 μL of ATP solution (90% 75 mMMgCl2, 75 μM ATP (final ATP concentration:15 μM) dissolved in ADB; 10% [γ-33P] ATP (stock 1 mCi/100 μL; 3000 Ci/mmol (Perkin-Elmer) and maintained for 10 min at 30° C. The reactions were quenched with 100 μL of 0.75% phosphoric acid and then transferred to and filtered through a phosphor cellulose filter plate (Millipore). After washing each well five times with 0.75% phosphoric acid, the plate was dried under vacuum for 5 min and, following the addition of 15 μL of scintillation fluid to each well, the residual radioactivity was measured using a Wallac luminescence counter. The IC50 values were derived from eight concentrations of test inhibitors.

T1 sequence (P68400 whole entry): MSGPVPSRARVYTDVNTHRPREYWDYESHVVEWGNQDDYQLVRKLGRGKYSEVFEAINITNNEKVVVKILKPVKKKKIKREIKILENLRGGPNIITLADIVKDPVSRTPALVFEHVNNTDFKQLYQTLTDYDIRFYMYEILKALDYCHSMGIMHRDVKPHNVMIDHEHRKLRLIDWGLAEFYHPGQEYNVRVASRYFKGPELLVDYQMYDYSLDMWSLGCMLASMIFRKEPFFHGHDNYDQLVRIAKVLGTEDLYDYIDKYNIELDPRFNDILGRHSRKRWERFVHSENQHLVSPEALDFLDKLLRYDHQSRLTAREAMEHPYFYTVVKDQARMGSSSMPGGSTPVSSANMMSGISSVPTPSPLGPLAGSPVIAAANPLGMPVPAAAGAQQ
T1 sequence (P67870 whole entry partner): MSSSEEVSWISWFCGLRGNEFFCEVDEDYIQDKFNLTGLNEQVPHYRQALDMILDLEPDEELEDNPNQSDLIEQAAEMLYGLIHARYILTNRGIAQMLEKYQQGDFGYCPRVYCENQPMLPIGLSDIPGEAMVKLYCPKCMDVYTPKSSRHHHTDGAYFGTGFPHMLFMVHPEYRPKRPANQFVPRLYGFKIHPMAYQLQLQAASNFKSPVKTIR

pIC50 [1]: 7.66
Structure (SMILES): Clc1cccc(Nc2nc3c(nc4cnccn43)c3ccncc23)c1 [Example 1, N-(3-chlorophenyl)pyrazino[2′,1′:2.3]imidazo[4,5-c][2.7]naphthyridin-5-amine]
pIC50 (PC3 (prostate)): 5.74
pIC50 (HCT116 (colon)): 5.68
pIC50 (A375 (melanoma)): 5.48
pIC50 (H1299 (lung)): 5.72
pIC50 (MIAPaCa-2 (pancreas)): 5.92
pIC50 (HL60 (leukemia)): 5.41
pIC50 (MCF7 (breast)): 5.32
pIC50 (MDA-MB-231 (breast)): 5.39
